Several values for one entry are separate records, joined by “and”; a condition that tells them apart may be missing. Identical values can stand only once.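 These data come from cells grown in 96-well plates and exposed to compound for 48 hours at five concentrations. The concentration for 50% growth inhibition is given as GI50.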 Activity calls are given as the source filed them. No stated cut-off is given here; in the data, active = GI50 up to about 1.1 µM and inactive = higher.
Key:
Assay in all cases: DTP human tumour cell line panel, 48 h
SNB-75 = system: SNB-75
SK-MEL-5 = system: SK-MEL-5
OVCAR-8 = system: OVCAR-8
T47D = system: T47D
KM12 = system: KM12
UACC-62 = system: UACC-62
OVCAR-3 = system: OVCAR-3
Malme-3M = system: Malme-3M
SK-MEL-28 = system: SK-MEL-28
ACHN = system: ACHN
SF-539 = system: SF-539
A498 = system: A498
MCF7 = system: MCF7
OVCAR-4 = system: OVCAR-4
HT-29 = system: HT-29
HCT-116 = system: HCT-116
CAKI-1 = system: CAKI-1
K562 = system: K562
SF-295 = system: SF-295
SK-OV-3 = system: SK-OV-3

Row | SMILES | GI50 (SNB-75) | GI50 (SK-MEL-5) | GI50 (OVCAR-8) | GI50 (T47D) | GI50 (KM12) | GI50 (UACC-62) | GI50 (OVCAR-3) | GI50 (Malme-3M) | GI50 (SK-MEL-28) | GI50 (ACHN) | GI50 (SF-539) | GI50 (A498) | GI50 (MCF7) | GI50 (OVCAR-4) | GI50 (HT-29) | GI50 (HCT-116) | GI50 (CAKI-1) | GI50 (K562) | GI50 (SF-295) | GI50 (SK-OV-3)
1 | CS(=O)(=O)Nc1ccc2c(c1)N(S(C)(=O)=O)CC2COS(C)(=O)=O (stereo not drawn) | 57.7 µM (inactive) | 18.9 µM (inactive) | 94.4 µM (inactive) | > 100 µM (inactive) | > 100 µM (inactive) | > 100 µM (inactive) | 34.6 µM (inactive) | 39.9 µM (inactive) | > 100 µM (inactive) | 35.7 µM (inactive) | 41.9 µM (inactive) | 85.9 µM (inactive) | > 10 µM (inactive) | 76 µM (inactive) | > 100 µM (inactive) | 54.6 µM (inactive) | 24.6 µM (inactive) | 52.4 µM (inactive) | 58.7 µM (inactive) | –
2 | CCOC(=O)/C(=C\c1ccc(CO)o1)P(=O)(OCC)OCC | 33 µM (inactive) | > 100 µM (inactive) | > 10 µM (inactive) | 91.2 µM (inactive) | 33.3 µM (inactive) | 38.7 µM (inactive) | 18.9 µM (inactive) | 20.8 µM (inactive) | 30.7 µM (inactive) | 61.1 µM (inactive) | 19.7 µM (inactive) | 55.3 µM (inactive) | 43.9 µM (inactive) | 19.9 µM (inactive) | 33.2 µM (inactive) | 24.4 µM (inactive) | 55.7 µM (inactive) | – | > 100 µM (inactive) | 68.5 µM (inactive)
3 | CCOC(=O)c1nc2cc(C(F)(F)F)ccc2nc1Nc1cc(OC)c(OC)c(OC)c1 | > 100 µM (inactive) | > 100 µM (inactive) | > 100 µM (inactive) | > 100 µM (inactive) | > 100 µM (inactive) | > 100 µM (inactive) | > 100 µM (inactive) | > 100 µM (inactive) | > 100 µM (inactive) | > 100 µM (inactive) | > 100 µM (inactive) | > 100 µM (inactive) | > 100 µM (inactive) | – | > 100 µM (inactive) | > 100 µM (inactive) | > 100 µM (inactive) | > 100 µM (inactive) | > 100 µM (inactive) | > 100 µM (inactive)
4 | CCc1nnc2sc(-c3ccc(-c4ccccc4[N+](=O)[O-])o3)nn12 | > 100 µM (inactive) | 27.7 µM (inactive) | 50.7 µM (inactive) | 36.3 µM (inactive) | 30.8 µM (inactive) | 45.7 µM (inactive) | 32.1 µM (inactive) | > 100 µM (inactive) | – | 62.2 µM (inactive) | 29.7 µM (inactive) | 54 µM (inactive) | 19.7 µM (inactive) | 53.1 µM (inactive) | 35.6 µM (inactive) | 37.3 µM (inactive) | 66.4 µM (inactive) | 27.7 µM (inactive) | 32.6 µM (inactive) | 40 µM (inactive)
5 | CCCCCCCCCCCC1=C(O)C(=O)C(CC2=C(O)C(=O)C(CCCCCCCCCCC)=C(O)C2=O)=C(O)C1=O | 14.9 µM (inactive) | > 100 µM (inactive) | 29.8 µM (inactive) | > 100 µM (inactive) | > 100 µM (inactive) | > 100 µM (inactive) | – | 44 µM (inactive) | > 100 µM (inactive) | 76 µM (inactive) | > 100 µM (inactive) | 52.2 µM (inactive) | > 100 µM (inactive) | 40.7 µM (inactive) | > 100 µM (inactive) | > 100 µM (inactive) | 60.5 µM (inactive) | 49.8 µM (inactive) | 35.2 µM (inactive) | 50.9 µM (inactive)
6 | Fc1ccc(C(OCCN2CCC3CCC(C2)N3C/C=C/c2ccco2)c2ccc(F)cc2)cc1 (stereo not drawn) | 15.1 µM (inactive) | 4.22 µM (inactive) | 5.83 µM (inactive) | 5.14 µM (inactive) | 9.1 µM (inactive) | 13.8 µM (inactive) | 11.4 µM (inactive) | 9.57 µM (inactive) | 6.46 µM (inactive) | 12.7 µM (inactive) | 14.1 µM (inactive) | 11.2 µM (inactive) | 10.2 µM (inactive) | 10.2 µM (inactive) | – | 4.91 µM (inactive) | 12.8 µM (inactive) | 3.21 µM (inactive) | 13 µM (inactive) | 14.6 µM (inactive)
7 | O=C1Nc2cccc(Cl)c2/C1=C\c1c(-c2ccccc2)nc2n1CCS2 | 24 µM (inactive) | 19.5 µM (inactive) | 24.7 µM (inactive) | 17.5 µM (inactive) | 20.8 µM (inactive) | 17.9 µM (inactive) | 19.4 µM (inactive) | 20.2 µM (inactive) | 21.2 µM (inactive) | 16.4 µM (inactive) | 17.1 µM (inactive) | 20.4 µM (inactive) | 18.4 µM (inactive) | – | 20.3 µM (inactive) | 20.2 µM (inactive) | 22.9 µM (inactive) | 17.2 µM (inactive) | 28.7 µM (inactive) | 24.4 µM (inactive)
8 | C=C(c1ccccc1)C1ON(C)CCc2cc(OC)c(OC)cc21 (stereo not drawn) | > 100 µM (inactive) | 23.3 µM (inactive) | > 100 µM (inactive) | 37 µM (inactive) | > 100 µM (inactive) | > 100 µM (inactive) | > 100 µM (inactive) | 96.4 µM (inactive) | 45.1 µM (inactive) | 84.7 µM (inactive) | > 100 µM (inactive) | > 100 µM (inactive) | 0.256 µM (active) | – | 75.3 µM (inactive) | 43.4 µM (inactive) | > 100 µM (inactive) | 58.7 µM (inactive) | 58.9 µM (inactive) | > 100 µM (inactive)
9 | COC(=O)c1cc(-c2ccc3ccccc3c2)nc(O)c1C#N | > 100 µM (inactive) | > 100 µM (inactive) | > 100 µM (inactive) | > 100 µM (inactive) | > 100 µM (inactive) | > 100 µM (inactive) | > 100 µM (inactive) | > 100 µM (inactive) | > 100 µM (inactive) | > 100 µM (inactive) | > 100 µM (inactive) | > 100 µM (inactive) | > 100 µM (inactive) | > 100 µM (inactive) | > 100 µM (inactive) | > 100 µM (inactive) | > 100 µM (inactive) | – | > 100 µM (inactive) | > 100 µM (inactive)
10 | COc1ccc(-c2c(C#N)c(N)n(C3OCC(OC(C)=O)C(OC(C)=O)C3OC(C)=O)c(=S)c2C#N)cc1 (stereo not drawn) | 31.8 µM (inactive) and 21 µM (inactive) | 34.8 µM (inactive) | 39.3 µM (inactive) and 21.8 µM (inactive) | 14.8 µM (inactive) and 26.7 µM (inactive) | 53.7 µM (inactive) and 50.1 µM (inactive) | 30.8 µM (inactive) and 40.9 µM (inactive) | 31.8 µM (inactive) and 23.4 µM (inactive) | 44.9 µM (inactive) and 37.5 µM (inactive) | 61.4 µM (inactive) and 60.3 µM (inactive) | 48.9 µM (inactive) and 40.6 µM (inactive) | 88.9 µM (inactive) and 87.9 µM (inactive) | 32.7 µM (inactive) and 28.2 µM (inactive) | 27.5 µM (inactive) and 49.3 µM (inactive) | 47.3 µM (inactive) and 48.3 µM (inactive) | 41.2 µM (inactive) and 44.5 µM (inactive) | 41.1 µM (inactive) and 52.2 µM (inactive) | 38.5 µM (inactive) and 23.1 µM (inactive) | – | 46.9 µM (inactive) and 71.4 µM (inactive) | 42.8 µM (inactive) and 24 µM (inactive)
11 | CN(/N=C/c1ccccc1O)c1ccc2ccccc2n1 | – | 32.5 µM (inactive) | 33.8 µM (inactive) | 13.5 µM (inactive) | 21.3 µM (inactive) | 35.2 µM (inactive) | 19.5 µM (inactive) | 21.6 µM (inactive) | 65.9 µM (inactive) | 25.4 µM (inactive) | 22.6 µM (inactive) | 20 µM (inactive) | 2.61 µM (inactive) | 20.3 µM (inactive) | 29.8 µM (inactive) | 48.3 µM (inactive) | 33.9 µM (inactive) | 60.3 µM (inactive) | 16.2 µM (inactive) | 16.3 µM (inactive)
12 | CCc1c(Cc2cccc3ccccc23)n2c(nc1=O)SCC2OCCO (stereo not drawn) | > 100 µM (inactive) | 95.5 µM (inactive) | 33.1 µM (inactive) | 31 µM (inactive) | 56.5 µM (inactive) | 56.5 µM (inactive) | – | > 100 µM (inactive) | > 100 µM (inactive) | > 100 µM (inactive) | > 100 µM (inactive) | > 100 µM (inactive) | 50.5 µM (inactive) | 41.5 µM (inactive) | 55.3 µM (inactive) | > 100 µM (inactive) | > 100 µM (inactive) | 30.4 µM (inactive) | – | –
13 | COC(=O)C1C=CN(N(C)C)C2=C1C(=O)c1c(O)cccc1C2=O (stereo not drawn) | 1.66 µM (inactive) | 0.54 µM (active) | 2.67 µM (inactive) | 2.32 µM (inactive) | 2.07 µM (inactive) | 1.04 µM (active) | 0.625 µM (active) | 1.53 µM (inactive) | 1.94 µM (inactive) | 3.37 µM (inactive) | – | 2.81 µM (inactive) | 1.95 µM (inactive) | 2.17 µM (inactive) | 1.49 µM (inactive) | 1.92 µM (inactive) | 2.47 µM (inactive) | 3.09 µM (inactive) | 1.65 µM (inactive) | 6.19 µM (inactive)
14 | C[C@@H](c1ccccc1)N(CC#N)[C@H]1CCC[C@]1(O)/C=C/c1ccc2c(c1)OCO2 | > 25 µM (inactive) | > 25 µM (inactive) | > 25 µM (inactive) | > 25 µM (inactive) | > 25 µM (inactive) | 3.59 µM (inactive) | – | > 25 µM (inactive) | > 25 µM (inactive) | 4.31 µM (inactive) | – | 3.48 µM (inactive) | 5.65 µM (inactive) | > 25 µM (inactive) | > 25 µM (inactive) | > 25 µM (inactive) | > 25 µM (inactive) | > 25 µM (inactive) | > 25 µM (inactive) | > 25 µM (inactive)

Reference: ChEMBL document CHEMBL1201862, “PubChem BioAssay data set” (2004)
